# Earlier results, collected in US20220249605A1, “Treatment of Mood and Anxiety Disorders” (Icahn School of Medicine At Mount Sinai, priority 2013, published 2022).
# Bridge positions count the residues as written; N and C are the ends. Ends that are not written are not given here.
# How the values were obtained:
# NPY Y2 receptor = molecular target: T1, NPY Y2 receptor (Homo sapiens, UniProt P49146); settings: read-out: IC50, Y2 receptor antagonist
# T1 sequence (P49146 1-381): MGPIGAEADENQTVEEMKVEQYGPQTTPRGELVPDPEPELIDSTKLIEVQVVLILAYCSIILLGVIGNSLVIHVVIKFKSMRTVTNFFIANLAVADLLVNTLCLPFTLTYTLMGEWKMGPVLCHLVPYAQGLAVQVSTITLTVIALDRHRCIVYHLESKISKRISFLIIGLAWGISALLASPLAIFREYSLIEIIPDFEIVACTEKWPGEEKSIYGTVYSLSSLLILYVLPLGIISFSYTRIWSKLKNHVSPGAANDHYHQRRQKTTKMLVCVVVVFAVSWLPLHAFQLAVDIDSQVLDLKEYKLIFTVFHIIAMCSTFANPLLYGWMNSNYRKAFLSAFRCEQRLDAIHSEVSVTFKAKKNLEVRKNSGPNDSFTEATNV
# [1] = anesthetized rats
# [2] = anesthetized rats and dogs
# [3] = test system: norepinephrine-stimulated cAMP accumulation in SK-N-MC cells; settings: read-out: EC50, inhibition of norepinephrine-stimulated cAMP accumulation
# Y1 receptors = molecular target: T2, Y1 receptors (Homo sapiens, UniProt P25929)
# T2 sequence (P25929 1-384): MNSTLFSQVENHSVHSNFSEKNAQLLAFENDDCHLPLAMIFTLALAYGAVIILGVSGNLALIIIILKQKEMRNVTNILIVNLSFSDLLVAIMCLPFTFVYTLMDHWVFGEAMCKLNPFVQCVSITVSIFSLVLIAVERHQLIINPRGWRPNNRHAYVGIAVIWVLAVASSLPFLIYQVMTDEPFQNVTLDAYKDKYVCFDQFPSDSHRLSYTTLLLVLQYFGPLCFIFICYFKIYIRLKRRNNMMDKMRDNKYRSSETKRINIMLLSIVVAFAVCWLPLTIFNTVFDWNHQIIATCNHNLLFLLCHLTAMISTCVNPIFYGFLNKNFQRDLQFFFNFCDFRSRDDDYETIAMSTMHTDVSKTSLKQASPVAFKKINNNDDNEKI
molecule,measurement,setting,value
CN(C)S(=O)(=O)c1ccc(NC(=S)N2CCC(C(O)(c3ccccc3)c3ccccc3)CC2)cc1 [CYM 9484],IC50,NPY Y2 receptor,19 nM
"(Leu^31, Pro^34)-Neuropeptide Y [H-3306]",Specificity (Y1 receptor),Y1 receptor,Specific Y1 receptor
"(Leu^31, Pro^34)-Neuropeptide Y [H-8575]",Specificity (Y1 receptor),Y1 receptor,selective ligand for
same,Potency in increasing blood pressure compared with NPY,[1],showing an even higher
(Pro^34)-Neuropeptide Y [H-8580],Effect on blood pressure,[2],increased blood
same,Inhibitory effects on cardiac vagal action,[2],"contrast, showed no"
same,Specificity (Y1 receptor),Y1 receptor,selective NPY agonist
"Tyr-Lys-Gly-(Cyclo(Glu^26-Lys^29), Pro^34)-Neuropeptide Y (25-36) (YKGREYIKLITRPRY; lactam 5-8; ends not checked) [H-3972]",EC50,[3],12 nM
same,Ki,Y1 receptors,16 nM
